{"source": "patent US20250287948A1", "about": "“TOBACCO ALKALOID INSECT REPELLENT IN PLANTS” (Philip Morris Products S.A., priority 2022, published 2025)", "key": {"whitefly [1]": {"tested_on": "whitefly", "test": "Whitefly mortality on treated leaves", "assay_type": "in vivo", "conditions": "concentration 5 percent", "experimental": "(§1) For the purpose of the study, leaf disks were dipped for a total time of 30 seconds into the prepared solutions and left dry for 10 minutes at room temperature. Subsequently, the leaf disks were deposited at the bottom of glass tubes and a minimum of 20 adult whiteflies were introduced into the tubes.\nThe study also assessed the whitefly mortality rate over the duration of the evaluation period. […]"}, "adult whitefly [2]": {"tested_on": "adult whitefly", "test": "Tube test assay: repelling effect with whitefly introduced at later infestation time points (Example 4)", "assay_type": "in vivo", "conditions": "concentration 5 percent; for repelling effect: remaining 5 days (up to 123 hours) of the evaluation period", "experimental": "The repelling effect of anatabine on adult whitefly was evaluated in a further comparative study which introduced additional whitefly and freshly treated leaves at set evaluation time points. For the purpose of the study, a tube test assay was performed using solutions of anatabine and DEET at a concentration of 5 percent together with a placebo solution, as shown in Table 10. The placebo control defines the baseline, against which the repelling effect is then calculated.\nWhitefly were introduced into the tube at infestation time points: 48, 72 and 120 hours and the repelling effect was measured after 3 hours at evaluation time points: 51, 75 and 123 hours."}, "leaves": {"tested_on": "leaves", "test": "Damage to leaves caused by treatment", "experimental": "as §1, with “left to” for “left”\nas §1"}, "whitefly [3]": {"tested_on": "whitefly", "test": "Presence of eggs on treated leaves, evaluated visually", "assay_type": "in vivo", "conditions": "concentration 5 percent; evaluation period of up to 6 days (144 hours)", "experimental": "In addition, the presence and amount of eggs on the leaves after a period of 48 hours was evaluated visually and the results are shown in Table 7.\nThe presence of eggs was visually monitored 24 hours after each infestation time point."}, "adult whitefly [4]": {"tested_on": "adult whitefly", "test": "Tube test assay: repelling effect on adult whitefly, treated leaf disks (Examples 1-3)", "assay_type": "in vivo", "experimental": "For the purpose of the study, a tube test assay was performed using solutions of anatabine and DEET prepared according to Table 1.\nFor the purpose of the study, leaf disks were dipped for a total time of 30 seconds into the prepared solutions and left to dry for 10 minutes at room temperature. Subsequently, the leaf disks were deposited at the bottom of glass tubes and a minimum of 20 adult whiteflies were introduced into the tubes. […] The repelling effect of both anatabine and DEET is shown in Table 2 and was calculated by counting the number of whitefly landing on a leaf compared to the placebo control, using the Abbott's formula: […]\nThe placebo control defines the baseline, against which the repelling effect is then calculated according to the formula above.\nFor the purpose of the study, a tube test assay was performed using solutions of anatabine at three different concentrations prepared according to Table 3.\nThe placebo control defines the baseline, against which the repelling effect is then calculated.\nas §1, with “left to” for “left”, “tubes. The repelling effect of anatabine at three different concentrations was measured at different time points: after 1 hour, 3 hours, 6 hours. the repelling effect of anatabine at different concentrations is shown in Table 4.” for “tubes.”\nA concentration of 5 percent was chosen based on the results of Example 2. […] In the placebo control the leaves were treated with solvent only. The placebo control defines the baseline, against which the repelling effect is then calculated.\nas §1"}, "[5]": {"conditions": "infestation time 48 hour, evaluation time 51 hour"}, "[6]": {"conditions": "infestation time 72 hour, evaluation time 75 hour"}, "[7]": {"conditions": "infestation time 120 hour, evaluation time 123 hour"}, "[8]": {"conditions": "concentration 1.0 percent, evaluation time 0 hour"}, "[9]": {"conditions": "concentration 1.0 percent, evaluation time 1 hour"}, "[10]": {"conditions": "concentration 1.0 percent, evaluation time 3 hour"}, "[11]": {"conditions": "concentration 5 percent, evaluation time 0 hour (Example 3)"}, "[12]": {"conditions": "concentration 5 percent, evaluation time 6 hour (Example 3)"}, "[13]": {"conditions": "concentration 5 percent, evaluation time 24 hour (Example 3)"}, "[14]": {"conditions": "concentration 5 percent, evaluation time 48 hour (Example 3)"}}, "note": "Values joined by “and” are separate entries in the source; they are usually repeats but may differ in a detail not shown here. Equal values may be shown once."}
{"compound": "C1=CCC(c2cccnc2)NC1", "note": "(stereo not drawn) [Anatabine, anatabine]", "values": [{"measurement": "Mean Mortality", "setting": "whitefly [1]; evaluation time 0 hour", "result": 0.0, "unit": "%"}, {"measurement": "Mean Mortality", "setting": "whitefly [1]; evaluation time 6 hour", "result": 7.6, "unit": "%"}, {"measurement": "Mean Mortality", "setting": "whitefly [1]; evaluation time 24 hour", "result": 41.3, "unit": "%"}, {"measurement": "Mean Mortality", "setting": "whitefly [1]; evaluation time 48 hour", "result": 84.6, "unit": "%"}, {"measurement": "Mean Repellence", "setting": "adult whitefly [2]; [5]", "result": 100, "unit": "%"}, {"measurement": "Mean Repellence", "setting": "adult whitefly [2]; [6]", "result": 85.3, "unit": "%"}, {"measurement": "Mean Repellence", "setting": "adult whitefly [2]; [7]", "result": 82.2, "unit": "%"}, {"measurement": "repelling effect", "setting": "adult whitefly [2]", "result": "more than 80%"}, {"measurement": "Leaves damage", "setting": "leaves; concentration 5 percent, evaluation time 48 hour", "result": "did not cause any damage"}, {"measurement": "damage to leaves", "setting": "leaves; concentrations of 5 percent or less (Example 2)", "result": "not damaged"}, {"measurement": "number of eggs observed on the leaves", "setting": "whitefly [3]", "result": "remained low"}, {"measurement": "Mean Repellence", "setting": "adult whitefly [4]; [8]", "result": 81.3, "unit": "%"}, {"measurement": "Mean Repellence", "setting": "adult whitefly [4]; [9]", "result": 90.0, "unit": "%"}, {"measurement": "Mean Repellence", "setting": "adult whitefly [4]; [10]", "result": 96.0, "unit": "%"}, {"measurement": "Mean Repellence", "setting": "adult whitefly [4]; concentration 1.0 percent, evaluation time 6 hour", "result": 88.9, "unit": "%"}, {"measurement": "repelling effect", "setting": "adult whitefly [4]; concentration 1.0 percent, throughout the evaluation period of 6 hours", "result": "over 80%"}, {"measurement": "Mean Repellence", "setting": "adult whitefly [4]; concentration 2 percent, evaluation time 3 hour", "result": 100, "unit": "%"}, {"measurement": "Mean Repellence", "setting": "adult whitefly [4]; concentration 2 percent, evaluation time 6 hour", "result": 100, "unit": "%"}, {"measurement": "Mean Repellence", "setting": "adult whitefly [4]; [11]", "result": 100, "unit": "%"}, {"measurement": "Mean Repellence", "setting": "adult whitefly [4]; concentration 5 percent, evaluation time 3 hour (Example 2)", "result": 100, "unit": "%"}, {"measurement": "Mean Repellence", "setting": "adult whitefly [4]; concentration 5 percent, evaluation time 6 hour (Example 2)", "result": 100, "unit": "%"}, {"measurement": "Mean Repellence", "setting": "adult whitefly [4]; [12]", "result": 100, "unit": "%"}, {"measurement": "Mean Repellence", "setting": "adult whitefly [4]; [13]", "result": 100, "unit": "%"}, {"measurement": "Mean Repellence", "setting": "adult whitefly [4]; [14]", "result": 100, "unit": "%"}, {"measurement": "repelling effect", "setting": "adult whitefly [4]; concentration 5 percent, throughout the evaluation period of 48 hours", "result": 100, "unit": "%"}, {"measurement": "Mean Repellence", "setting": "adult whitefly [4]; concentration 10 percent, evaluation time 3 hour", "result": 100, "unit": "%"}, {"measurement": "Mean Repellence", "setting": "adult whitefly [4]; concentration 10 percent, evaluation time 6 hour", "result": 100, "unit": "%"}, {"measurement": "repelling effect", "setting": "adult whitefly [4]; regardless of the concentration (2, 5, 10 percent), 3 and 6 hours", "result": 100, "unit": "%"}]}
{"compound": "COC(=O)c1ccccc1", "note": "[Methyl Benzoate, methyl benzoate, reference compound]", "values": [{"measurement": "Mean Mortality", "setting": "whitefly [1]; evaluation time 0 hour", "result": 0.0, "unit": "%"}, {"measurement": "Mean Mortality", "setting": "whitefly [1]; evaluation time 6 hour", "result": 1.4, "unit": "%"}, {"measurement": "Mean Mortality", "setting": "whitefly [1]; evaluation time 24 hour", "result": 47.6, "unit": "%"}, {"measurement": "Mean Mortality", "setting": "whitefly [1]; evaluation time 48 hour", "result": 77.8, "unit": "%"}, {"measurement": "drop of the repelling effect", "setting": "adult whitefly [4]; concentration 5 percent, by the end of the 48 hours evaluation period", "result": "~25", "unit": "%"}, {"measurement": "Mean Repellence", "setting": "adult whitefly [4]; [11]", "result": 100, "unit": "%"}, {"measurement": "Mean Repellence", "setting": "adult whitefly [4]; [12]", "result": 47.2, "unit": "%"}, {"measurement": "Mean Repellence", "setting": "adult whitefly [4]; [13]", "result": 76.8, "unit": "%"}, {"measurement": "Mean Repellence", "setting": "adult whitefly [4]; [14]", "result": 76.5, "unit": "%"}]}
{"compound": "CCN(CC)C(=O)c1cccc(C)c1", "note": "[DEET, N,N-Diethyl-meta-toluamide, reference compound]", "values": [{"measurement": "Mean Mortality", "setting": "whitefly [1]; evaluation time 0 hour", "result": 0.0, "unit": "%"}, {"measurement": "Mean Mortality", "setting": "whitefly [1]; evaluation time 6 hour", "result": 1.4, "unit": "%"}, {"measurement": "Mean Mortality", "setting": "whitefly [1]; evaluation time 24 hour", "result": 50.0, "unit": "%"}, {"measurement": "Mean Mortality", "setting": "whitefly [1]; evaluation time 48 hour", "result": 80.3, "unit": "%"}, {"measurement": "drop of efficacy", "setting": "adult whitefly [2]; after the first 48 hours", "result": "~50", "unit": "%"}, {"measurement": "Mean Repellence", "setting": "adult whitefly [2]; [5]", "result": 54.1, "unit": "%"}, {"measurement": "Mean Repellence", "setting": "adult whitefly [2]; [6]", "result": 55.9, "unit": "%"}, {"measurement": "Mean Repellence", "setting": "adult whitefly [2]; [7]", "result": 48.9, "unit": "%"}, {"measurement": "repelling effect", "setting": "adult whitefly [2]", "result": "below 50%"}, {"measurement": "drop of the repelling effect", "setting": "adult whitefly [4]; concentration 1.0 percent, after 6 hours", "result": "~40", "unit": "%"}, {"measurement": "Mean Repellence", "setting": "adult whitefly [4]; [8]", "result": 87.5, "unit": "%"}, {"measurement": "Mean Repellence", "setting": "adult whitefly [4]; [9]", "result": 90.0, "unit": "%"}, {"measurement": "Mean Repellence", "setting": "adult whitefly [4]; [10]", "result": 68.0, "unit": "%"}, {"measurement": "Mean Repellence", "setting": "adult whitefly [4]; [11]", "result": 100, "unit": "%"}, {"measurement": "Mean Repellence", "setting": "adult whitefly [4]; [12]", "result": 100, "unit": "%"}, {"measurement": "Mean Repellence", "setting": "adult whitefly [4]; [13]", "result": 94.9, "unit": "%"}, {"measurement": "Mean Repellence", "setting": "adult whitefly [4]; [14]", "result": "93% and 93.4%"}]}
